In patent US20030186355A1, “Methods for selecting and producing t cell peptide epitopes and vaccines incorporating said selected epitopes” (priority 2000, published 2003):
Read-outs that look alike come from different tables or passages of the source.

What was measured:
TAP [1] = conditions: previous study, Neisig et al., 1995; cited from earlier work
T2 cells = assay: 51Cr cytotoxicity assay with peptide pulsed targets; assay type: cell-based, human; conditions: targets pulsed at high peptide concentrations
Experimental: CTL activity was measured in a standard chromium release assay. Briefly, after ^51Cr labeling, target cells were pulsed with the designated peptide concentrations for 30 min or longer at 37° C. Target cells were added to various number of effector cells in a final volume of 100 μl complete culture medium in 96-well-U-bottom plates. After 4 h incubation at 37° C. supernatants were harvested.

TAP [2] = assay: TAP translocation of peptides into the endoplasmic reticulum; assay type: biochemical

Sequence: FAPGNYPAL
- translocation by TAP into the ER (TAP [1]): not efficiently translocated

Sequence: KSPWFTTL
- translocation by TAP into the ER (TAP [1]): not translocated by TAP at all

Sequence: GEFAPGNYPAL [proteasome fragment of Sendai substrate, N-terminally elongated 11-mer]
- translocation by TAP into the ER (TAP [1]): most efficiently translocated length variant

Sequence: LYVDSLFFL [PRAME aa; 301-309, naturally presented in HLA-A24]
- lysis of peptide pulsed targets by CTL clones (T2 cells): very low crossreactivity

Sequence: FNKSPWFTTL [proteasome fragment of MCF substrate, 10-mer]
- translocation by TAP into the ER (TAP [2]): efficiently translocated

Sequence: FNKSPWFTTLI [proteasome fragment of MCF substrate, 11-mer]
- translocation by TAP into the ER (TAP [2]): efficiently translocated

Sequence: PSSSWDFITVD [peptide fragment said to be generated by FBL-3 cells]
- translocation by TAP into the ER (TAP [2]): completely abolishes TAP translocation
